Active and inactive are the calls of the source. The rule behind the calls is not given here.

Format in all cases: cell-based
Assay [1] addresses T1, Sodium- and chloride-dependent GABA transporter 3 (Homo sapiens) (UniProt P48066).
T1 sequence (whole entry): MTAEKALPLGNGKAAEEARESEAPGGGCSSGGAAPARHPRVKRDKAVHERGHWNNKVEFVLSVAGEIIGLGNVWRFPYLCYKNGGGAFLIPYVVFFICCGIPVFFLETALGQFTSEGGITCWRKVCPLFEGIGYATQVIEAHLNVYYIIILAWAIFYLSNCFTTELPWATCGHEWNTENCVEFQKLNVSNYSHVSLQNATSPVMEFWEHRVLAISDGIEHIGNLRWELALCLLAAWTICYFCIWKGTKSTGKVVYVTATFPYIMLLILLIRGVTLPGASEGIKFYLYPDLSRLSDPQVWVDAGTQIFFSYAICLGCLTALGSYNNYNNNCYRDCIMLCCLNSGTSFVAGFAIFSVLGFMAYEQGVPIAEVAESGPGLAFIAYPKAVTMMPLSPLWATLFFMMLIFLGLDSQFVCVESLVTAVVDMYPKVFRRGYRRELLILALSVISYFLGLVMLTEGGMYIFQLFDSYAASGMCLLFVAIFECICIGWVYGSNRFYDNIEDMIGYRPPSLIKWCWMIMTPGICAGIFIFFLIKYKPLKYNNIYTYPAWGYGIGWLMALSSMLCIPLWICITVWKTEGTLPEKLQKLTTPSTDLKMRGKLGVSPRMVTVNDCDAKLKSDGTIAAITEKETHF
Put plainly: Inhibition of human GAT3 expressed in Flp-In CHO cells assessed as reduction in [3H]GABA uptake at 100 uM incubated for 3 mins by liquid scintillation counting method relative to control.

For assay [2], the target named is Gamma-aminobutyric acid receptor subunit alpha-4/beta-2/gamma-2 (Homo sapiens, UniProt P47870+P18507+P48169). In words: Agonist activity at recombinant human GABA-A alpha4beta2gamma2S receptor transiently expressed in human tsA201 cells incubated for 30 mins and measured up to 90 secs by FMP dye based FLIPR membrane potential blue assay.
Assay [3] deals with Gamma-aminobutyric acid receptor subunit rho-1 (Homo sapiens, UniProt P24046). In words: Agonist activity at recombinant human GABA-A rho-1 receptor transiently expressed in human tsA201 cells assessed as GABA-induced maximum response incubated for 30 mins and measured up to 90 secs by FMP dye based FLIPR membrane potential blue assay relative to GABA.
The species named for a further assay is Homo sapiens. Put plainly: Agonist activity at recombinant human GABA-A alpha3beta2gamma2S receptor transiently expressed in human tsA201 cells assessed as GABA-induced maximum response incubated for 30 mins and measured up to 90 secs by FMP dye based FLIPR membrane potential blue assay relative to GABA.
The target of assay [4] is T2, GABA-A receptor; alpha-1/beta-2/gamma-2 (Homo sapiens, UniProt P14867+P18507+P47870).
T2 sequence (P14867 whole entry): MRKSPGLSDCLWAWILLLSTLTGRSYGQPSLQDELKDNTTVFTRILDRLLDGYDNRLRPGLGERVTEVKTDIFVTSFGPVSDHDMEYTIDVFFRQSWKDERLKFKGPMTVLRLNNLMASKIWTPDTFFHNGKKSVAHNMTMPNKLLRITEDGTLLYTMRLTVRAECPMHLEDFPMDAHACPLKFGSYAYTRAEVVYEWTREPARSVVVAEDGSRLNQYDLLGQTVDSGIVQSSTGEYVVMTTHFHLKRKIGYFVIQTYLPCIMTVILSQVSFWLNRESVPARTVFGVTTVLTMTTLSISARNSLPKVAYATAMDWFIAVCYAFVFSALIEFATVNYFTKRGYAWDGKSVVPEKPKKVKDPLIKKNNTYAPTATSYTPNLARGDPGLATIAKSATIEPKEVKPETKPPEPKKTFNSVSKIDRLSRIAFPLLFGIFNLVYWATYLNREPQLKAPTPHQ
T2 sequence (P47870 whole entry): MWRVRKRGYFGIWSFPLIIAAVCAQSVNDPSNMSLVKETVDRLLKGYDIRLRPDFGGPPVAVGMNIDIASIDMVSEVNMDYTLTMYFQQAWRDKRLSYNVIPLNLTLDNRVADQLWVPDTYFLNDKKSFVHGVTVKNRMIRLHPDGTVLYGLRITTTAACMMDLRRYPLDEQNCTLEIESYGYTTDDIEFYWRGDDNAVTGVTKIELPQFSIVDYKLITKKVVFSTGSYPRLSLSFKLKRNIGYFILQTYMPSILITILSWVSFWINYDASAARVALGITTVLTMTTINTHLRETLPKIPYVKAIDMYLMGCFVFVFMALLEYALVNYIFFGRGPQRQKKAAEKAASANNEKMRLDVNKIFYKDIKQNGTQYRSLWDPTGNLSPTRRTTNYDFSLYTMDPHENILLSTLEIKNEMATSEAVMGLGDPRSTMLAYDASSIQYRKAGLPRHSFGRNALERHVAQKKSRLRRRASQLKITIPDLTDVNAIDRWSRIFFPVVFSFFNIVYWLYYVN
T2 sequence (P18507 whole entry): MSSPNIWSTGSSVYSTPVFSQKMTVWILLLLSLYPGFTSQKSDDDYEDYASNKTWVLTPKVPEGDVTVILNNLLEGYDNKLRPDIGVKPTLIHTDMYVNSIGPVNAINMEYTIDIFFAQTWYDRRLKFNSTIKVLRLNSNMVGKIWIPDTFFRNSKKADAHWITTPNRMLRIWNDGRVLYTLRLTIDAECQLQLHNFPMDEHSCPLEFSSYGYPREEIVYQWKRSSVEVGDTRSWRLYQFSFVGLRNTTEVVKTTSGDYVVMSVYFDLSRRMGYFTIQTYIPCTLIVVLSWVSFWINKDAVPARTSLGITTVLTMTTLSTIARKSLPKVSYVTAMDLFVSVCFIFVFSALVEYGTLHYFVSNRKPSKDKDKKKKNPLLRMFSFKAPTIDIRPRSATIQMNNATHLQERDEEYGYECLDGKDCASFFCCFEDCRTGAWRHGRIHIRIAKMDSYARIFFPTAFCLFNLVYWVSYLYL
In words: Agonist activity at recombinant human GABA-A alpha1beta2gamma2S receptor transiently expressed in human tsA201 cells incubated for 30 mins and measured up to 90 secs by FMP dye based FLIPR membrane potential blue assay.

Sequence of Gamma-aminobutyric acid receptor subunit alpha-4/beta-2/gamma-2 (P48169 whole entry, one chain of several): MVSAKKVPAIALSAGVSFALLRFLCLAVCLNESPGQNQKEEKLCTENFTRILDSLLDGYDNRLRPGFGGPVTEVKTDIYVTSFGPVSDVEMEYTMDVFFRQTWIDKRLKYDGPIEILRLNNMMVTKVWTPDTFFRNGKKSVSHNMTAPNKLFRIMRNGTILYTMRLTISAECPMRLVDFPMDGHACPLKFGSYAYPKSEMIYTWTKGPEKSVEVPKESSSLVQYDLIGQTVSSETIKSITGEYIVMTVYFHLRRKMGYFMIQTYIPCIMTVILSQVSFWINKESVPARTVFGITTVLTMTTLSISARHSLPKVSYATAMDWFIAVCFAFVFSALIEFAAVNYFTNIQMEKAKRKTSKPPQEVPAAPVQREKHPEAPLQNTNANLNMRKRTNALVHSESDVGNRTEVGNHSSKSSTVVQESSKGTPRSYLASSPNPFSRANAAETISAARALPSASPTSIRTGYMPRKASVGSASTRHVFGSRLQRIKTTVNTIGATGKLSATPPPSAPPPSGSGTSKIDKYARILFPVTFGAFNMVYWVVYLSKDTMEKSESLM
Sequence of Gamma-aminobutyric acid receptor subunit rho-1 (P24046 whole entry): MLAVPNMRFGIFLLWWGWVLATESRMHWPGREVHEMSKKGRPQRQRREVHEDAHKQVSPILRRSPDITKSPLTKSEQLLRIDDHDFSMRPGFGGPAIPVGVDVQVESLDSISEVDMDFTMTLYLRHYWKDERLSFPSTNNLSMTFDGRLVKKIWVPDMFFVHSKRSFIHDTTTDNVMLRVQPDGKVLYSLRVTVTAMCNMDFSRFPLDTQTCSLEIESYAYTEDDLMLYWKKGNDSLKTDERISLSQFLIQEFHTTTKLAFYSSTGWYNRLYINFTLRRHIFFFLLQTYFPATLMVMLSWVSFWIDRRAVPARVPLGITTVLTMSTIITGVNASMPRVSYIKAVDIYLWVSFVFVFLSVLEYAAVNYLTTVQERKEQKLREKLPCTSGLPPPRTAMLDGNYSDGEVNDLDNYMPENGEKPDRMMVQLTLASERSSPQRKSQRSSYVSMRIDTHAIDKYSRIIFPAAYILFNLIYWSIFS

Turning to `O=C(O)C[C@@H]1CCNC1`, the inhibition (in general, the relative decrease from the control value, in per cent) in assay [1] was more than 30%. For the same compound, in assay [2], the EC50 (commonly the concentration giving half of the maximal effect) is “Not Active” and the pEC50 entry was “inactive”. In assay [3], the Rmax entry was “inactive”. Also, the Rmax entry in the assay filed under Homo sapiens is “inactive”.
As for `CC(C(=O)O)C1CSC(N)=N1` (stereo in doubt; l-10b), in assay [2], the EC50 result is “Not Active”.
In the case of `C[C@H]1SC(N)=N[C@@H]1CC(=O)O` (relative stereo), the inhibition in assay [1] is more than 30%. In assay [2], the EC50 result is given as “Not Active” and the pEC50 result is “inactive”. Besides, the Rmax entry in assay [3] was “inactive”. Also, in the assay filed under Homo sapiens, the Rmax result was “inactive”.
As to `O=C(O)CC1CNC=N1` (stereo not drawn), the inhibition in assay [1] is more than 30%. Also, the Rmax in assay [3] was found to be 45%; in the assay filed under Homo sapiens it was 91%. Also, the EC50 in assay [4] came to 7.6 µM.
Turning to `C[C@@H](C(=O)O)[C@H]1CSC(N)=N1` (relative stereo), in assay [1], the inhibition was more than 30%. Moreover, in assay [2], the EC50 entry is listed as “Not Active” and the pEC50 entry is “inactive”. Moreover, the EC50 in assay [4] was found to be 48 µM. In addition, the Rmax in the assay filed under Homo sapiens turned out to be 96%.
With `C[C@@H](C(=O)O)[C@@H]1CSC(N)=N1` (relative stereo), the inhibition in assay [1] was more than 30%. For the same compound, the EC50 entry in assay [2] was “Not Active”; in assay [4], 9.7 µM. Also, the pEC50 entry in assay [2] is “inactive”. The Rmax in assay [3] was determined as 35%; in the assay listed under Homo sapiens it was 19%.
In the case of `CC(C(=O)O)C1CSC(N)=N1` (stereo in doubt; l-10a), the EC50 in assay [4] stood at 25 µM.
For the compound `NC1=NC(CC(=O)O)CN1` (stereo not drawn), the inhibition in assay [1] is more than 30%. Further, the Rmax stood at 64% in assay [3] and 105% in the assay listed under Homo sapiens. The EC50 in assay [4] was determined as 11 µM.
With `NC1=NC(CC(=O)O)CS1` (stereo not drawn), the inhibition in assay [1] was more than 30%. Besides, the Rmax in assay [3] was 43%; in the assay listed under Homo sapiens it was 95%. Also, the EC50 in assay [4] turned out to be 1.8 µM.
For `C[C@@H]1SC(N)=N[C@@H]1CC(=O)O` (relative stereo), the inhibition in assay [1] is more than 30%. For the same compound, in assay [2], the EC50 result was “Not Active” and the pEC50 entry is “inactive”. Besides, the Rmax in the assay filed under Homo sapiens was determined as 76%.
As for `O=C(O)C[C@H]1CCNC1`, the inhibition in assay [1] is more than 30%. Further, the Rmax in assay [3] was determined as 101%; in the assay listed under Homo sapiens it was 102%. Moreover, in assay [4], the EC50 stood at 12 µM.

These data come from ChEMBL document CHEMBL4396887, “Five-Membered N-Heterocyclic Scaffolds as Novel Amino Bioisosteres at γ-Aminobutyric Acid (GABA) Type A Receptors and GABA Transporters” (J Med Chem, 2019).
